In PMC6274369, “Novel Anthranilamide-Based FXa Inhibitors: Drug Design, Synthesis and Biological Evaluation” (Molecules, 2016):

What was measured:
[1] = target: T1, human FXa (Homo sapiens, UniProt P00742); assay: Inhibition of FXa in vitro (chromogenic substrate CS-11(22)); format: biochemical; details: for IC50: chromogenic substrate, 37 °C, pH 7.4; for Ki: Km = 2.4
T1 construct: purchased Hyphen BioMed, Paris, France
Description: The inhibition of FXa was measured using human FXa (Hyphen BioMed, Paris, France) and chromogenic substrate CS-11(22) (Hyphen BioMed, Paris, France) in 384-well microtiter plates at room temperature. […] 2 μL of FXa (56.8 nM), 16 μL of Tris buffer (adjust to pH 7.4 with HCl containing 0.3 M NaCl and 50 mM Tris) and 3 μL of test compound were added to the well, respectively. The negative control was composed of the same mixed solutions except replacing test compound with DMSO. […] After incubated at 37 °C for 5 min, 8 μL of FXa substrate solution (3.5 mM) was added and then incubated at 37 °C for 25 min. The FXa activity was measured at 405 nm using a SpectraMax M5 (Molecular Devices, Sunnyvale, CA, USA). The IC50 was calculated by the software named SPSS (IBM, North Castle, NY, USA) and the Probit function in it.

[2] = target: T2, human FIIa (Homo sapiens, UniProt P00734); assay: Thrombin inhibition in vitro (chromogenic substrate CS-01(38)); format: biochemical; details: tested 10 μM to 100 μM
T2 construct: purchased Hyphen BioMed, Paris, France
Description: The inhibition of thrombin was measured using human FIIa (Hyphen BioMed, Paris, France) and chromogenic substrate CS-01(38) (Hyphen BioMed, Paris, France) in 384-well microtiter plates at room temperature. […] 2 μL of FIIa (3 NIH/mL), 20 μL of Tris buffer (adjust to pH 7.4 with HCl) containing 0.3 M NaCl and 50 mM Tris and 2 μL of test compound were added to the well, respectively. The negative control was composed of the same mixed solutions except replacing test compound with DMSO. The positive control was composed of the same mixed solutions except replacing test compound with Rivaroxaban. After incubated at 37 °C for 5 min, 3 μL of FIIa substrate solution (4 mM) was added and then incubated at 37 °C for 25 min. The FIIa activity was measured at 405 nm using a SpectraMax M5 (Molecular Devices).

[3] = test system: rat plasma; assay: Prothrombin time (PT) assay in rat plasma; format: biochemical; details: concentration doubling prothrombin time
Description: (§1) A commercially available automatic coagulometer (Steellex Science Instrument Co., Ltd., Beijing, China) was employed to measure PT. The clotting times were also measured using the instrument itself, in accordance with the manufacturer’s instructions. Increasing concentrations of inhibitor or solvent were added to rat (Sprague-Dawley rats, Shanchuanhong Experimental Animals Co., Ltd., Tianjin, China) and human plasma and incubated for 3 min at 37 °C. Prothrombin time (PT) was determined by automatic coagulometer.

[4] = test system: human plasma; assay: Prothrombin time (PT) assay in human plasma; format: biochemical; details: concentration doubling prothrombin time
Description: as §1

[5] = test system: FXa; details: Figure 4, design basis; no reference given; cited from earlier work
[6] = test system: thrombin; set-up: method as in PMID 16305517; details: read-out: selectivity against thrombin (IC50); cited from earlier work

T1 sequence (P00742 235-488 limits assumed): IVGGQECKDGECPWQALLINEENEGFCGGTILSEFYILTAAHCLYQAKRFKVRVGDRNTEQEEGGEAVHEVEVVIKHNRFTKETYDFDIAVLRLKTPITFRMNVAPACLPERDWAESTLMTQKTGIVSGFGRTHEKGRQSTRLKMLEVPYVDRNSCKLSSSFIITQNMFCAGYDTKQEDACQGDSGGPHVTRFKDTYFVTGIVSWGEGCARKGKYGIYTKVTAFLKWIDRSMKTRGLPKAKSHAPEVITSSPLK
T1 sequence (P00742 41-179 partner limits assumed): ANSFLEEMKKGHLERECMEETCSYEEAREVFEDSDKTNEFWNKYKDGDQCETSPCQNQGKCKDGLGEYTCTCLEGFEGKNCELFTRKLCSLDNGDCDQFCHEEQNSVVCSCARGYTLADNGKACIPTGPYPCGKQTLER

Row | SMILES | IC50 [1] [nM] | further results
1 | O=C(Nc1ccc(Cl)cc1C(=O)Nc1ccc(-n2ccccc2=O)cc1)c1ccc(F)cc1 [Compound 1e, 5-Chloro-2-(4-fluorobenzamido)-N-(4-(2-oxopyridin-1(2H)-yl)phenyl)benzamide] | > 1000 | 
2 | O=C(Nc1ccc(Cl)cc1C(=O)Nc1ccc(N2CCOCC2=O)cc1)c1ccc(Cl)s1 [Compound 1p, 5-Chloro-N-(4-chloro-2-((4-(3-oxomorpholino)phenyl)carbamoyl)phenyl)thiophene-2-carboxamide] | 111 | 
3 | O=C(Nc1ccccc1C(=O)Nc1ccc(-n2ccccc2=O)cc1)c1ccc(Cl)s1 [Compound 1a, 5-Chloro-N-(2-((4-(2-oxopyridin-1(2H)-yl)phenyl)carbamoyl)phenyl)thiophene-2-carboxamide] | 30.2 | Ki [1]: 22 nM; IC50 [2]: > 10000 nM
4 | Cc1cccc(C(=O)Nc2ccc(N3CCOCC3=O)cc2)c1NC(=O)c1ccc(Cl)s1 [Compound 1v, 5-Chloro-N-(2-methyl-6-((4-(3-oxomorpholino)phenyl)carbamoyl)phenyl)thiophene-2-carboxamide] | > 1000 | 
5 | O=C(NC[C@H]1CN(c2ccc(N3CCOCC3=O)cc2)C(=O)O1)c1ccc(Cl)s1 [Rivaroxaban, reference compound] |  | IC50 [5]: […]; 2 × PT (μM) (Rat) [3]: 0.3 µM; 2 × PT (μM) (Human) [4]: 0.2 µM; IC50 [6]: > 6900 nM
6 | O=C(Nc1ccccc1C(=O)Nc1ccc(N2CCOCC2=O)cc1)c1ccc(F)cc1 [Compound 1n, 2-(4-Fluorobenzamido)-N-(4-(3-oxomorpholino)phenyl)benzamide] | > 1000 | 
7 | Cc1cccc(C(=O)Nc2ccc(N3CCOCC3=O)cc2)c1NC(=O)c1ccc(F)cc1 [Compound 1w, 2-(4-Fluorobenzamido)-3-methyl-N-(4-(3-oxomorpholino)phenyl)benzamide] | > 1000 | 
8 | O=C(Nc1ccccc1C(=O)Nc1ccc(N2CCOCC2=O)cc1)c1ccc(Cl)s1 [Compound 1m, 5-Chloro-N-(2-((4-(3-oxomorpholino)phenyl)carbamoyl)phenyl)thiophene-2-carboxamide] | 317 | 
9 | COc1ccc(C(=O)Nc2cccc(O)c2NC(=O)c2ccc(N3CCCN(C)CC3)cc2)cc1 [Darexaban] |  | IC50 [5]: 54.6 nM
11 | O=C(Nc1ccccc1C(=O)Nc1ccc(-n2ccccc2=O)cc1)c1ccc(F)cc1 [Compound 1b, 2-(4-Fluorobenzamido)-N-(4-(2-oxopyridin-1(2H)-yl)phenyl)benzamide] | > 1000 | 
12 | Cc1ccc(NC(=O)c2ccc(F)cc2)c(C(=O)Nc2ccc(N3CCOCC3=O)cc2)c1 [Compound 1t, 2-(4-Fluorobenzamido)-5-methyl-N-(4-(3-oxomorpholino)phenyl)benzamide] | > 1000 | 
13 | Cc1ccc(NC(=O)c2ccc(Cl)s2)c(C(=O)Nc2ccc(-n3ccccc3=O)cc2)c1 [Compound 1g, 5-Chloro-N-(4-methyl-2-((4-(2-oxopyridin-1(2H)-yl)phenyl)carbamoyl)phenyl)thiophene-2-carboxami-de] | 25 | 2 × PT (μM) (Rat) [3]: 19.7 µM; 2 × PT (μM) (Human) [4]: 12.8 µM; Ki [1]: 16.4 nM; IC50 [2]: > 10000 nM
14 | Cc1ccc(NC(=O)c2ccc(F)cc2)c(C(=O)Nc2ccc(-n3ccccc3=O)cc2)c1 [Compound 1h, 2-(4-Fluorobenzamido)-5-methyl-N-(4-(2-oxopyridin-1(2H)-yl)phenyl)benzamide] | > 1000 | 
15 | Cc1ccc(NC(=O)c2ccc(Cl)cc2)c(C(=O)Nc2ccc(N3CCOCC3=O)cc2)c1 [Compound 1u, 2-(4-Chlorobenzamido)-5-methyl-N-(4-(3-oxomorpholino)phenyl)benzamide] | > 1000 | 
16 | Cc1ccc(NC(=O)c2ccc(Cl)cc2)c(C(=O)Nc2ccc(-n3ccccc3=O)cc2)c1 [Compound 1i, 2-(4-Chlorobenzamido)-5-methyl-N-(4-(2-oxopyridin-1(2H)-yl)phenyl)benzamide] | 511 | 

Further lines, with some results ahead:

Row | IC50 [1] [nM] | SMILES | further results
17 | > 1000 | Cc1cccc(C(=O)Nc2ccc(-n3ccccc3=O)cc2)c1NC(=O)c1ccc(Cl)cc1 [Compound 1l, 2-(4-Chlorobenzamido)-3-methyl-N-(4-(2-oxopyridin-1(2H)-yl)phenyl)benzamide] | 
18 | 71 | Cc1ccc(NC(=O)c2ccc(Cl)s2)c(C(=O)Nc2ccc(N3CCOCC3=O)cc2)c1 [Compound 1s, 5-Chloro-N-(4-methyl-2-((4-(3-oxomorpholino)phenyl)carbamoyl)phenyl)thiophene-2-carboxamide] | 2 × PT (μM) (Rat) [3]: 24.2 µM; 2 × PT (μM) (Human) [4]: 10.4 µM; Ki [1]: 54.4 nM; IC50 [2]: > 10000 nM
19 | > 1000 | Cc1cccc(C(=O)Nc2ccc(-n3ccccc3=O)cc2)c1NC(=O)c1ccc(Cl)s1 [Compound 1j, 5-Chloro-N-(2-methyl-6-((4-(2-oxopyridin-1(2H)-yl)phenyl)carbamoyl)phenyl)thiophene-2-carboxami-de] | 
20 | 197 | O=C(Nc1ccccc1C(=O)Nc1ccc(-n2ccccc2=O)cc1)c1ccc(Cl)cc1 [Compound 1c, 2-(4-Chlorobenzamido)-N-(4-(2-oxopyridin-1(2H)-yl)phenyl)benzamide] | 
21 | > 1000 | Cc1cccc(C(=O)Nc2ccc(N3CCOCC3=O)cc2)c1NC(=O)c1ccc(Cl)cc1 [Compound 1x, 2-(4-Chlorobenzamido)-3-methyl-N-(4-(3-oxomorpholino)phenyl)benzamide] | 
22 | > 1000 | Cc1cccc(C(=O)Nc2ccc(-n3ccccc3=O)cc2)c1NC(=O)c1ccc(F)cc1 [Compound 1k, 2-(4-Fluorobenzamido)-3-methyl-N-(4-(2-oxopyridin-1(2H)-yl)phenyl)benzamide] | 
23 | 440 | O=C(Nc1ccccc1C(=O)Nc1ccc(N2CCOCC2=O)cc1)c1ccc(Cl)cc1 [Compound 1o, 2-(4-Chlorobenzamido)-N-(4-(3-oxomorpholino)phenyl)benzamide] | 
24 | 430 | O=C(Nc1ccc(Cl)cc1C(=O)Nc1ccc(-n2ccccc2=O)cc1)c1ccc(Cl)s1 [Compound 1d, 5-Chloro-N-(4-chloro-2-((4-(2-oxopyridin-1(2H)-yl)phenyl)carbamoyl)phenyl)thiophene-2-carboxamide] | 
25 | 570 | O=C(Nc1ccc(Cl)cc1C(=O)Nc1ccc(-n2ccccc2=O)cc1)c1ccc(Cl)cc1 [Compound 1f, 5-Chloro-2-(4-chlorobenzamido)-N-(4-(2-oxopyridin-1(2H)-yl)phenyl)benzamide] | 
26 | > 1000 | O=C(Nc1ccc(Cl)cc1C(=O)Nc1ccc(N2CCOCC2=O)cc1)c1ccc(F)cc1 [Compound 1q, 5-Chloro-2-(4-fluorobenzamido)-N-(4-(3-oxomorpholino)phenyl)benzamide] | 
27 | 951 | O=C(Nc1ccc(Cl)cc1C(=O)Nc1ccc(N2CCOCC2=O)cc1)c1ccc(Cl)cc1 [Compound 1r, 5-Chloro-2-(4-chlorobenzamido)-N-(4-(3-oxomorpholino)phenyl)benzamide] | 
